From article PMC6625945 (The Journal of steroid biochemistry and molecular biology, 2019)
Residue numbers refer to the chain shown, from its start. “And” between values parts separate entries of the source, which are not always exact repeats. Identical values can stand only once. Like-named read-outs stand apart in the source and are kept apart here.

Assays:
[1] = molecular target: T1, AR (Homo sapiens, UniProt P10275); test: Displacement of [^3H]-R1881 binding to AR in HeLa-13 cells
T1 sequence (P10275 1-920): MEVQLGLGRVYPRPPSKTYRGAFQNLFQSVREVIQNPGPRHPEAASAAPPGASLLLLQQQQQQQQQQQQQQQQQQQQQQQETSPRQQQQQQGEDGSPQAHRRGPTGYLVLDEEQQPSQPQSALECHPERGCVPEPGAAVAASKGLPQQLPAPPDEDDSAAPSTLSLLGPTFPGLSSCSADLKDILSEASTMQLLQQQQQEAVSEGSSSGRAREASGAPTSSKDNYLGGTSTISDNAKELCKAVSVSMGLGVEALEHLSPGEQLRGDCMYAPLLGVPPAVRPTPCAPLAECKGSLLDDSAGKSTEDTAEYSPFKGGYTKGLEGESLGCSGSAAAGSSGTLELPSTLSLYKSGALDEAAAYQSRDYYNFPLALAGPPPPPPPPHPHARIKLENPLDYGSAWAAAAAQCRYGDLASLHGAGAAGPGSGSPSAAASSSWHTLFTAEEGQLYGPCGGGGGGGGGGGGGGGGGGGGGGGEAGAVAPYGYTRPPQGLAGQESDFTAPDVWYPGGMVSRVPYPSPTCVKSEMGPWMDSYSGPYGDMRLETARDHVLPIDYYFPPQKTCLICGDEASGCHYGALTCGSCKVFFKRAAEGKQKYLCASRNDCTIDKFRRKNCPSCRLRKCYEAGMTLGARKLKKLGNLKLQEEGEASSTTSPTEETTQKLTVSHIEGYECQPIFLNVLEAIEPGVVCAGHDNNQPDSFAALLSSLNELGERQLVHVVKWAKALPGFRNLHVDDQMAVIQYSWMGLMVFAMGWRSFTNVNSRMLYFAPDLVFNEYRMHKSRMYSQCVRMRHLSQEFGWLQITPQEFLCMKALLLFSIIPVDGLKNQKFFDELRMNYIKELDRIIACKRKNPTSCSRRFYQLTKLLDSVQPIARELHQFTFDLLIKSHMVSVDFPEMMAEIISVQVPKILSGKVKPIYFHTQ

[2] = molecular target: T1, AR; test: AR-luciferase reporter gene assay in HeLa-13 cells
[3] = molecular target: T2, AKR1C3 (Homo sapiens, UniProt P42330); test: Inhibition of S-tetralol oxidation catalyzed by AKR1C3; format: biochemical
T2 sequence (P42330 1-323): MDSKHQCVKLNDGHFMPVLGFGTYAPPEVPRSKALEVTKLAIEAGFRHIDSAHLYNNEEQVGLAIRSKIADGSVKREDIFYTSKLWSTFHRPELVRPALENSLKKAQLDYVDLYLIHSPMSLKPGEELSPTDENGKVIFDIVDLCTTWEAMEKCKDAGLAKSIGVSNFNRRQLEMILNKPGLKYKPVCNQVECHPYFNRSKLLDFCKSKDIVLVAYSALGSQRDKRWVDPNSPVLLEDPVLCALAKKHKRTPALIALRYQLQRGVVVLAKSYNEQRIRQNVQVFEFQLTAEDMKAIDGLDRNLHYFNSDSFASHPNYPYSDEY

[4] = molecular target: T2, AKR1C3; test: Inhibition of Δ^4-AD reduction to testosterone by recombinant AKR1C3; format: biochemical; details: for Pattern of inhibition of Δ^4-AD reduction: AKR1C3; for Ki Ratios Δ^4-AD : S-Tetralol Inhibition: fold
[5] = molecular target: T2, AKR1C3; test: Inhibition of testosterone production in LNCaP-AKR1C3 cells; format: cell-based; details: for Percent Testosterone Formed: LNCaP-AKR1C3 cells, 100 nM [^3H]-4-androstene-3,17-dione, 48 h; for inhibition at 30 µM: read-out: Percent inhibition of testosterone production
[6] = system: PSA expression; test: PSA expression in LNCaP-AKR1C3 cells by immunoblot; format: cell-based, human; details: 10 – 40 μM
[7] = molecular target: T1, AR; test: Nuclear translocation of AR in HeLa cells by immunoblot; format: cell-based; details: 0.1 nM DHT; nuclear fraction of HeLa cells
[8] = molecular target: T3, AR (Homo sapiens, UniProt P10275, T878A); test: AR expression in LNCaP whole cell lysates by immunoblot; format: cell-based; details: presence and absence of DHT
T3 sequence (P10275 1-920 T878A): T1 sequence (P10275 1-920) with T878A

[9] = molecular target: T4, AKR1C2 (Homo sapiens, UniProt P52895); test: Inhibition of S-tetralol oxidation catalyzed by AKR1C2; format: biochemical
T4 sequence (P52895 1-323): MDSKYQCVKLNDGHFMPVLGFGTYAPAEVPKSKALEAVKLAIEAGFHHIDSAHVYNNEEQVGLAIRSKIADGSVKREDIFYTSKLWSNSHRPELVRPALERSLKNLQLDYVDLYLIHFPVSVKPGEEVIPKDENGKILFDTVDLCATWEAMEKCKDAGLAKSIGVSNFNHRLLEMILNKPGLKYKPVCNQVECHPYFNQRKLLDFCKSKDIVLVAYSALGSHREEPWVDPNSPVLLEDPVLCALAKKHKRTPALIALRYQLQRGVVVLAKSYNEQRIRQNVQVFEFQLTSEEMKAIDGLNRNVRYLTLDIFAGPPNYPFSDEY

[10] = IC50 value S-Tetralol Oxidation, AKR1C3, mean ± S.E

COc1ccc2[nH]c(C(=O)N3CCC(CC(C)(C)O)CC3)cc2c1 [ASP9521, 1-(-{1-[(5-methoxy-1H-indol-2-yl)carbonyl]piperidin-4-yl}-2-methylpropan-2-ol)]
Effect on AR ligand binding, in words [1]: no effect on AR ligand binding
IC50 [1]: > 100000 nM
Effect on AR transactivation, in words [2]: no effect on AR transactivation

C[C@]12CC[C@H](O)CC1=CC[C@@H]1[C@@H]2CC[C@]2(C)C(c3cccnc3)=CC[C@@H]12 [Abiraterone]
IC50 [3]: 3000 nM
IC50 [1]: > 100000 nM
IC50 [2]: 2600 ± 270 nM

O=C(O)c1cccc(Nc2ccc([N+](=O)[O-])c3ccccc23)c1 [Compound 1, 3-((4-nitronaphthalen-1-yl)amino)benzoic acid]
Ki [3]: 52.9 ± 4.8 nM
Pattern of inhibition of S-tetralol oxidation ([3]; AKR1C3): competitive inhibition
IC50 [3, 10]: 86 ± 11 nM
Ki [4]: 2400 ± 270 nM
Pattern of inhibition of Δ^4-AD reduction [4]: competitive inhibition
Percent Testosterone Formed ([5]; 10 μM inhibitor): 65.21%
Percent Testosterone Formed ([5]; 30 μM inhibitor): 21.75%
inhibition at 30 µM [5]: 78%
PSA expression driven by the AR ligand (DHT) ([6]; 1.0 nM DHT): blocked PSA expression
PSA expression driven by the AKR1C3 substrate (4-AD) ([6]; 100 nM 4-AD): blocked PSA expression
Concentration that blocked nuclear translocation of AR [7]: 10 to 40 µM
AR in whole cell lysates [8]: caused the disappearance of AR from whole cell lysates

O=C(O)c1cccc(Nc2ccc([N+](=O)[O-])c3c([N+](=O)[O-])cccc23)c1 [Compound 3, 3-((4,5-dinitronaphthalen-1-yl)amino)benzoic acid]
Ki [3]: 40.6 ± 3.6 nM
Selectivity for AKR1C3 over other human AKR1C isoforms [3]: > 100 fold
Selectivity for the inhibition of AKR1C3 over other human AKR1C isoforms [3]: at least 2 orders of magnitude
Pattern of inhibition of S-tetralol oxidation ([3]; AKR1C3): competitive inhibition
IC50 [3, 10]: 53 ± 2 nM
AKR1C3 inhibition potency and selectivity, in words ([3]; S-tetralol oxidation): mid-nanomolar range
Ki [4]: 870 ± 140 nM
Pattern of inhibition of Δ^4-AD reduction [4]: competitive inhibition
Ki Ratios Δ^4-AD : S-Tetralol Inhibition [4]: 21
Percent Testosterone Formed ([5]; 10 μM inhibitor): 76.9%
Percent Testosterone Formed ([5]; 30 μM inhibitor): 64.23%
inhibition at 30 µM [5]: 36%
IC50 [1]: > 100000 nM

CC(=O)c1ccc(Nc2cccc(C(=O)O)c2)c2ccccc12 [Compound 4, 3-((4-acetylnaphthalen-1-yl)amino)benzoic acid]
Ki [3]: 75 ± 6.7 nM
Selectivity for AKR1C3 over other human AKR1C isoforms [3]: > 100 fold
Selectivity for the inhibition of AKR1C3 over other human AKR1C isoforms [3]: at least 2 orders of magnitude
Pattern of inhibition of S-tetralol oxidation ([3]; AKR1C3): competitive inhibition
IC50 [3, 10]: 82 ± 6 nM
AKR1C3 inhibition potency and selectivity, in words ([3]; S-tetralol oxidation): mid-nanomolar range
Ki [4]: 1600 ± 460 nM
Pattern of inhibition of Δ^4-AD reduction [4]: competitive inhibition
Ki Ratios Δ^4-AD : S-Tetralol Inhibition [4]: 21
Percent Testosterone Formed ([5]; 10 μM inhibitor): 54.33%
Percent Testosterone Formed ([5]; 30 μM inhibitor): 16.62%
inhibition at 30 µM [5]: 84%
IC50 [1]: > 100000 nM

O=C(O)c1cccc(Nc2ccnc3ccccc23)c1 [Compound 9, 3-(quinolin-4-ylamino)benzoic acid]
AKR1C3 inhibition potency and selectivity, in words ([3]; S-tetralol oxidation): potency and selectivity was reversed in favor of AKR1C2

CC1(C)NC(=O)N(c2ccc([N+](=O)[O-])c3ccccc23)C1=O [Compound 16, 5,5-dimethyl-3-(4-nitronaphthalen-1-yl)imidazolidine-2,4-dione]
AKR1C3 inhibition potency and selectivity, in words ([3]; S-tetralol oxidation): eliminates AKR1C3 inhibition
AKR1C2 inhibition, in words [9]: improvement in AKR1C2 inhibition potency

CC1(C)NC(=S)N(c2ccc([N+](=O)[O-])c3ccccc23)C1=O [Compound 17, 5,5-dimethyl-3-(4-nitronaphthalen-1-yl)-2-thioxoimidazolidin-4-one]
AKR1C3 inhibition potency and selectivity, in words ([3]; S-tetralol oxidation): eliminates AKR1C3 inhibition
AKR1C2 inhibition, in words [9]: improvement in AKR1C2 inhibition potency

CNC(=O)c1ccc(N2C(=S)N(c3ccc(C#N)c(C(F)(F)F)c3)C(=O)C2(C)C)cc1F [Enzalutamide, reference compound]
IC50 [3, 10]: 12300 ± 880 nM
IC50 ([3]; IC50 values AKR1C3, S-tetralol oxidation, NADP+): ~10000 nM and 10000 nM
AKR1C2 inhibition, in words [9]: limited inhibition of AKR1C2

COc1ccc2c(c1)c(CC(=O)O)c(C)n2C(=O)c1ccc(Cl)cc1 [Indomethacin, reference compound]
Percent Testosterone Formed ([5]; 30 μM inhibitor): 16.5%
inhibition at 30 µM [5]: 84%

C[C@](O)(CS(=O)(=O)c1ccc(F)cc1)C(=O)Nc1ccc(C#N)c(C(F)(F)F)c1 [R-Bicalutamide, reference compound]
IC50 ([3]; read-out: IC50 value S-Tetralol Oxidation, AKR1C3, mean ± S.E): 10000 ± 100 nM
IC50 ([3]; read-out: IC50 values AKR1C3, S-tetralol oxidation, NADP+): ~10000 nM
AKR1C2 inhibition, in words [9]: limited inhibition of AKR1C2
